The source of these data is patent US5498601A, “Platelet aggregation-inhibiting peptides” (Nippon Steel Corporation, priority 1992, dated 1996).

Data set [1] in a line: stability of the synthetic peptides in human plasma. The data set is classed as in vitro ADME. The settings on record: 37° C., peptide 100 μM; for half-life at 100 μM: male, read-out: Half-Time of the synthetic peptides in plasma. On the procedure:
The blood sample thus prepared was examined for the stability in whole blood. […] Then, the supernatant was collected to obtain a plasma fraction. This plasma fraction was examined for the stability in plasma.
The whole blood or plasma (225 μl) was placed in a test tube and heated to 37° C. Each of the synthetic peptides was dissolved in saline (pH 7.4) to prepare a solution at a concentration of 1 mM. Each of the synthetic peptide solutions was added to the whole blood or plasma in an amount of 25 μl (final concentration: 100 μM) and incubated for a certain period of time. After the incubation, the solution was cooled with ice to stop the degradation reaction. The plasma was stored frozen at -20° C. without performing any treatments. The whole blood was centrifuged at 2000 g for 5 minutes at 4° C. and the supernatant was stored frozen.
The samples were analyzed by reversed phase HPLC. The peak area of each synthetic peptide was calculated and the stability in the whole blood or plasma was evaluated from the change of the peak area.

The nature of a further data set: in vivo. Details: species or system MCH (ICR) strain mice. The settings on record: male, MCH (ICR), mouse, iv; for half-life: Half-Time of the synthetic peptides in mice. On the procedure:
For the evaluation of stability, MCH (ICR) strain mice (male, body weight: 28-32 g) were used. […] After a certain period of time, blood was collected from the abdominal vein using an injection syringe treated with heparin. Immediately after the collection, the blood was centrifuged (1500 g, 3 minutes) at 4° C. and the supernatant was stored frozen at -20° C. Each of the supernatants was analyzed by reversed phase HPLC in the same manner as that in the aforementioned evaluation of stability in plasma.

For another data set, the system named is platelet aggregation. In words: intravenous injection in beagle, platelet aggregation of PRP measured over time. The data set is classed as in vivo. The settings on record: 5 mg/Kg i.v. On the procedure:
(1) In order to examine how long the peptides of the present invention and heparin, which is used as an anticoagulant at present, can remain without being broken down or eliminated and how long the activity of them persists, intravenous injection experiments were carried out using beagles.
Since the peptides of the present invention have the platelet aggregation-inhibiting activity, the amount of the peptides which remain in the body of an organism without being broken down can be determined by collecting blood and measuring the platelet aggregation-inhibiting activity of the blood at given intervals of time. Thus, the in vivo stability of the peptides can be estimated.
In the experiments, a male beagle having a body weight of 10 Kg was used. […] The collected blood was centrifuged at 1000 rpm for 10 minutes to prepare platelet-rich plasma (PRP). The reminder was further centrifuged at 3000 rpm for 15 minutes to prepare platelet-poor plasma (PPP).
The platelet aggregation ability was determined by measuring the platelet aggregation of the PRP with collagen and ADP using an aggregometer. In the measurement, ADP was added at a final concentration of 7.5 and 10.0 μM and collagen was added at a final concentration of 7.5 and 10.0 μg/ml.

The subject of the next data set is human platelets. In words: protection of human platelet fraction during storage. The note with it: platelet fraction, enzymes present in plasma.
The test system of a further data set is blood coagulation. As to the kind of experiment: intravenous heparin in beagle, prothrombin time and activated partial thromboplastin time. The class given is in vivo. The settings on record: 200 U/Kg i.v. As to the method:
(2) Heparin, currently used as an anticoagulant, was used as a comparison with the peptides of the present invention.
Therefore, the in vivo stability of heparin was estimated by measuring the time-dependent change in the anticoagulation action which is the main action of heparin.
In the experiments, haparin as dissolved in saline was injected into the vein and blood was collected at given intervals of time to prepare PPP by the same method as that described in (1).
In the measurement of the anticoagulation action, the prepared PPP was used to measure prothrombin time, which is an indicator of blood coagulation activity in vitro, and activated partial thromboplastin time according to a conventional method. Each measurement was conducted under preincubation conditions at 37° C. for 3 minutes using AMELUNG KC-10A (Baxtor CO.). The rate of the disappearance of heparin from the body can be estimated by measuring the prolongations of the prothrombin time and the activated partial thromboplastin time (i.e., the prolongation of time up to coagulation) after the injection.

Non-standard residues stand in square brackets, D forms with d. Residues, ends and D or L forms follow the SMILES beside them. No end group written: not given here. *: point of attachment. pGlu = O=C1CC[C@@H](C(=O)O)N1; Pip = O=C(O)[C@@H]1CCCCN1; X2 = O=C(c1cc(O)nc(O)n1)*; Aze = O=C(O)[C@@H]1CCN1 Bounds are passed on as bounds.

Protocol for human platelets: Immediately after the blood collection, the syringe was stirred gently to mix the blood with the sodium citrate solution. The mixed blood was centrifuged (1100 rpm, 250 g) at room temperature for 15 minutes and the rotation was stopped without applying the brake. Then, the supernatant was collected with a pipette to obtain a platelet fraction. The remaining blood was further centrifuged (3000 rpm, 1000 g). The supernatant was collected to obtain platelet-poor plasma and stored.
The platelet fraction was placed in a polypropylene test tube, which was capped with a membrane filter to ensure breathability. Then, the test tube was placed on a shaker and stored at room temperature while shaking through vibrational amplitude of 20 cm at a frequency of 2 Hz. All the operations were performed under aseptic conditions to prevent the proliferation of bacteria during the storage.
After the storage for a given period of time, an aliquot of the platelet fraction was sampled and the number of platelets was measured. Prostaglandin E1 (Sigma Co.) was added to give a final concentration of 20 μg/ml and centrifuged at 750 g for 10 minutes. The supernatant was removed and the remainder was washed twice with HEPES-Tyrode's buffer containing prostaglandin E1 to remove the protected peptide. Finally, the platelets were suspended in preliminarily stored platelet-poor plasma. After the incubation for a given period of time, the aggregation ability of the platelets was determined by the method described above.

Take `N=C(N)NCCC[C@H](NC(=O)[C@H](CO)NC(=O)c1cc(O)nc(O)n1)C(=O)NCC(=O)N[C@@H](CC(=O)O)C(=O)N[C@@H](Cc1c[nH]c2ccccc12)C(=O)O` [Example 9, Orotyl--Ser--Arg--Gly--Asp--Trp--OH] (X2-SRGDW-OH): the half-life at 100 μM in data set [1] is not below 240 min. For the same compound, in “in vivo”, the “Half-Time of the synthetic peptides in mice” value came out at 6.9 min and the half-life stood at 10.1 min. Besides, the “time within which the peptide was broken down in the body or eliminated from the kidney” value with platelet aggregation was not above 60 min.
As for `N=C(N)NCCC[C@H](NC(=O)[C@H](CO)NC(=O)[C@@H]1CCC(=O)N1)C(=O)NCC(=O)N[C@@H](CC(=O)O)C(=O)N[C@@H](Cc1c[nH]c2ccccc12)C(=O)O` [Example 11, Pyroglutamyl--Ser--Arg--Gly--Asp--Trp--OH] ([pGlu]SRGDW-OH), the half-life at 100 μM in data set [1] is not below 240 min.
Turning to `N=C(N)NCCC[C@H](NC(=O)[C@H](CO)NC(=O)[C@@H]1CCN1)C(=O)NCC(=O)N[C@@H](CC(=O)O)C(=O)N[C@@H](Cc1c[nH]c2ccccc12)C(=O)O` [Example 17, (L-2-Azetidinecarboxyl)--Ser--Arg--Gly--Asp--Trp--OH] (H-[Aze]SRGDW-OH), the half-life at 100 μM in data set [1] is 49 min. The compound also gave a half-life in “in vivo” of 3.3 min.
Regarding `N=C(N)NCCC[C@H](NC(=O)[C@H](CO)NC(=O)[C@@H]1CCCCN1)C(=O)NCC(=O)N[C@@H](CC(=O)O)C(=O)N[C@@H](Cc1c[nH]c2ccccc12)C(=O)O` [Example 18, (L-Pipecolinyl)--Ser--Arg--Gly--Asp--Trp--OH] (H-[Pip]SRGDW-OH), in data set [1], the “Half-Time of the synthetic peptides in plasma” value (“Half-Time … in plasma” below) is given as “at least 120 minutes” and the half-life at 100 μM was not below 120 min. The same compound showed a half-life in “in vivo” of 3.3 min.
`N=C(N)NCCC[C@H](N)C(=O)NCC(=O)N[C@@H](CC(=O)O)C(=O)N[C@@H](Cc1ccccc1)C(=O)O` [RGDF, reference compound] (H-RGDF-OH): the “stability when added to a platelet fraction” value in the data set on human platelets is on record as “broken down in several hours”.
Consider “PSRGDW-OH [Example 16, Pro--Ser--Arg--Gly--Asp--Trp--OH]”, for which, in data set [1], the “Half-Time … in plasma” value was 74.5 min and the half-life at 100 μM was found to be 74.5 min. For the same compound, in “in vivo”, the half-life was not above 2 min.
Turning to “WSRGDW-OH [Example 1, Trp--Ser--Arg--Gly--Asp--Trp--OH]”, in data set [1], the “Half-Time … in plasma” value stood at 11.5 min and the half-life at 100 μM is 11.5 min. The half-life in “in vivo” is not above 2 min.
In the case of heparin, in the data set with blood coagulation, the “activated partial thromboplastin time” value is listed as “The same results were obtained” and the “time to completely recover prothrombin time to the level before injection” value fell in the range of 2 to 3 h.
